Structures are written as SMILES.

The target of the assay is T1, recombinant JAK2 (JAK2 JH1 domain) (Homo sapiens, UniProt O60674).
T1 construct: 50 nM JAK2 JH1 domain (Upstate); purchased Upstate
T1 sequence (O60674 849-1124 limits assumed): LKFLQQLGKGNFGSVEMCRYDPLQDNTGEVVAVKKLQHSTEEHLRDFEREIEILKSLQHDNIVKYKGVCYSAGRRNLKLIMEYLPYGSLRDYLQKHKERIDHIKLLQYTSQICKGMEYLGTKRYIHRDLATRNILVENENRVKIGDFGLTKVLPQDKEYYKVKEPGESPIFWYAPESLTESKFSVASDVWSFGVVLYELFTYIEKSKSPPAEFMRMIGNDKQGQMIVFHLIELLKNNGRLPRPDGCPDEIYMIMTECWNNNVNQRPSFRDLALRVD
As to the kind of experiment: JAK2 Kinase Activity Inhibition Assay and Determination of IC50 (HTRF). The format is biochemical. To be noted: 50 nM JAK2 JH1 domain, 15 μM MgATP, 80 min at room temperature. The protocol: JAK2 Kinase Activity Inhibition Assay and Determination of IC50
The kinase activity was measured using a modified version of the homogeneous time-resolved tyrosine kinase assay described in Park et al. Anal. Biochem. 269, 94-104 (1999).
IC50 was obtained by fitting the observed relationship between compound/inhibitor concentration and HTRF signal with a 4-parameter logistic equation.
On to `CC(C)(O)c1cc(F)c(-c2cc(C(N)=O)c(Nc3ccc(S(C)(=O)=O)cc3)s2)c(F)c1` [Example 1, 5-[2,6-difluoro-4-(1-hydroxy-1-methylethyl)phenyl]-2-{[4-(methylsulfonyl)phenyl]amino}thiophene-3-carboxamide], for which the half-inhibitory concentration (IC50) – broadly, the concentration that gives 50% inhibition – is 47 nM.

Take `CS(=O)(=O)c1ccc(Nc2sc(-c3ccc(Cl)cc3)cc2C(N)=O)cc1` [Example 2, 5-(4-chlorophenyl)-2-{[4-(methylsulfonyl)-phenyl]amino}thio-phene-3-carboxamide]: the half-inhibitory concentration (IC50) was determined as 220 nM.

Turning to `CNC(=O)c1ccc(Nc2sc(-c3c(F)cc(C(C)(C)O)cc3F)cc2C(N)=O)cc1` [Example 4, 5-[2,6-difluoro-4-(1-hydroxy-1-methylethyl)-phenyl]-2-({4-[(methylamino)-carbonyl]phenyl}-amino)thiophene-3-carboxamide], the IC50 is 32 nM.

Take `CN(C)C(=O)c1ccc(Nc2sc(-c3c(F)cc(C(C)(C)O)cc3F)cc2C(N)=O)cc1` [Example 5, 5-[2,6-difluoro-4-(1-hydroxy-1-methylethyl)-phenyl]-2-({4-[(dimethylamino)carbonyl]phenyl}amino)thiophene-3-carboxamide]: the IC50 was 21 nM.

`CC(C)(O)c1cc(F)c(-c2cc(C(N)=O)c(Nc3ccncc3)s2)c(F)c1` [Example 6, 5-[2,6-difluoro-4-(1-hydroxy-1-methylethyl)-phenyl]-2-(pyridin-4-ylamino)thio-phene-3-carboxamide]: the half-inhibitory concentration (IC50) was 120 nM.

On to `CC(C)(O)c1cc(F)c(-c2cc(C(N)=O)c(Nc3ccnc(CO)c3)s2)c(F)c1` [Example 7, 5-[2,6-difluoro-4-(1-hydroxy-1-methylethyl)-phenyl]-2-{[2-(hydroxymethyl)-pyridin-4-yl]amino}thio-phene-3-carboxamide], for which the IC50 was found to be 75 nM.

As to `Cc1noc(-c2ccc(Nc3sc(-c4c(F)cc(C(C)(C)O)cc4F)cc3C(N)=O)cc2)n1` [Example 9, 5-[2,6-difluoro-4-(1-hydroxy-1-methylethyl)-phenyl]-2-{[4-(3-methyl-1,2,4-oxadiazol-5-yl)phenyl]amino} thiophene-3-carboxamide], the IC50 is 1400 nM.

Regarding `CC(C)(O)c1ccc(-c2cc(C(N)=O)c(Nc3cccnc3)s2)cc1` [Example 10, 5-(4-(1-Hydroxy-1-methylethyl)phenyl)-2-(3-pyridinylamino)-3-thiophenecarboxamide], the IC50 stood at 220 nM.

Consider `CC(=O)c1ccc(Nc2sc(-c3c(F)cc(C(C)(C)O)cc3F)cc2C(N)=O)cc1` [Example 11, 2-[(4-acetylphenyl)amino]-5-[2,6-difluoro-4-(1-hydroxy-1-methylethyl)phenyl]thiophene-3-carboxamide], for which the 50% inhibitory concentration (IC50) came to 110 nM.

Consider `CC(C)(O)c1ccc(Nc2sc(-c3c(F)cc(C(C)(C)O)cc3F)cc2C(N)=O)cc1` [Example 12, 5-[2,6-difluoro-4-(1-hydroxy-1-methylethyl)phenyl]-2-{[4-(1-hydroxy-1-methylethyl)phenyl]amino}thiophene-3-carboxamide], for which the IC50 amounted to 29 nM.

On to `CC(C)(O)c1cc(F)c(-c2cc(C(N)=O)c(Nc3ccc(C(=O)N4CCOCC4)cc3)s2)c(F)c1` [Example 14, 5-[2,6-difluoro-4-(1-hydroxy-1-methylethyl)phenyl]-2-{[4-(morpholin-4-ylcarbonyl)phenyl]amino}thiophene-3-carboxamide], for which the IC50 was found to be 21 nM.

`NC(=O)c1cc(-c2ccccc2)sc1Nc1ccccc1` [Example 17, 2-Anilino-5-phenylthiophene-3-carboxamide]: the 50% inhibitory concentration (IC50) came to 1000 nM.

In the case of `NC(=O)c1cc(-c2ccccc2)sc1Nc1cccnc1` [Example 18, 5-Phenyl-2-(pyridin-3-ylamino)-thiophene-3-carboxamide], the IC50 was determined as 320 nM.

Regarding `NC(=O)c1cc(-c2ccccc2)sc1Nc1cncnc1` [Example 19, 5-Phenyl-2-(pyrimidin-5-ylamino)-thiophene-3-carboxamide], the half-inhibitory concentration (IC50) came to 2600 nM.

On to `NC(=O)c1cc(-c2ccccc2)sc1Nc1ccncc1` [Example 20, 5-Phenyl-2-(pyridin-4-ylamino)-thiophene-3-carboxamide], for which the concentration for half-maximal inhibition (IC50) worked out at 180 nM.

For the compound `CC(C)(O)c1cc(F)c(-c2cc(C(N)=O)c(Nc3ccccc3)s2)c(F)c1` [Example 21, 2-anilino-5-[2,6-difluoro-4-(1-hydroxy-1-methylethyl)phenyl]thiophene-3-carboxamide], the concentration for half-maximal inhibition (IC50) was 490 nM.

Turning to `CC(C)(O)c1cc(F)c(-c2cc(C(N)=O)c(Nc3ccc(CO)cc3)s2)c(F)c1` [Example 22, 5-[2,6-difluoro-4-(1-hydroxy-1-methylethyl)-phenyl]-2-{[4-(hydroxymethyl)-phenyl]amino}-thiophene-3-carboxamide], the half-maximal inhibitory concentration (IC50) amounted to 170 nM.

Consider `CC(C)(O)c1cc(F)c(-c2cc(C(N)=O)c(Nc3ccc(CN4CCOCC4)cc3)s2)c(F)c1` [Example 23, 5-[2,6-difluoro-4-(1-hydroxy-1-methylethyl)-phenyl]-2-{[4-(morpholin-4-ylmethyl)-phenyl]amino}-thiophene-3-carboxamide], for which the half-inhibitory concentration (IC50) worked out at 42 nM.

As for `CC(C)(O)c1cc(F)c(-c2cc(C(N)=O)c(Nc3ccc(C=O)cc3)s2)c(F)c1` [Example 24, 5-[2,6-difluoro-4-(1-hydroxy-1-methylethyl)phenyl]-2-[(4-formylphenyl)amino]thiophene-3-carboxamide], the IC50 came to 410 nM.

On to `CC(C)(O)c1cc(F)c(-c2cc(C(N)=O)c(Nc3ccc(CN4CCS(=O)(=O)CC4)cc3)s2)c(F)c1` [Example 25, 5-[2,6-difluoro-4-(1-hydroxy-1-methylethyl)phenyl]-2-({4-[(1,1-dioxidothiomorpholin-4-yl)methyl]phenyl}amino)thiophene-3-carboxamide], for which the IC50 is 26 nM.

As to `CN(C)Cc1ccc(Nc2sc(-c3c(F)cc(C(C)(C)O)cc3F)cc2C(N)=O)cc1` [Example 26, 5-[2,6-difluoro-4-(1-hydroxy-1-methylethyl)-phenyl]-2-({4-[(dimethylamino)methyl]phenyl}-amino)-thiophene-3-carboxamide], the IC50 was 22 nM.

On to `CC(C)(O)c1cc(F)c(-c2cc(C(N)=O)c(Nc3ccc(S(=O)(=O)N4CCOCC4)cc3)s2)c(F)c1` [Example 28, 5-[2,6-difluoro-4-(1-hydroxy-1-methylethyl)phenyl]-2-{[4-(morpholin-4-ylsulfonyl)phenyl]amino}thiophene-3-carboxamide], for which the IC50 was found to be 56 nM.

For `CN(C)S(=O)(=O)c1ccc(Nc2sc(-c3c(F)cc(C(C)(C)O)cc3F)cc2C(N)=O)cc1` [Example 29, 5-[2,6-difluoro-4-(1-hydroxy-1-methylethyl)-phenyl]-2-({4-[(dimethylamino)sulfonyl]phenyl}-amino)-thiophene-3-carboxamide], the half-maximal inhibitory concentration (IC50) came to 44 nM.

On to `CC(C)(O)c1cc(F)c(-c2cc(C(N)=O)c(Nc3ccc(NS(C)(=O)=O)cc3)s2)c(F)c1` [Example 31, 5-[2,6-difluoro-4-(1-hydroxy-1-methylethyl)phenyl]-2-({4-[(methylsulfonyl)amino]phenyl}amino)thiophene-3-carboxamide], for which the IC50 amounted to 56 nM.
